This experiment addresses Ras GEF SOS (Son of Sevenless) (Homo sapiens, UniProt Q07889). The experiment is described as follows: SOS-mediated nucleotide exchange on Ras (BODIPY-GDP fluorescence). The experiment is classed as biochemical. The following applies: SOS-mediated exchange of BODIPY-GDP for GTP on Ras. As to the method: Compounds of the present invention were tested for their ability to modify the rate at which Ras exchanges a labeled nucleotide guanosine diphosphate (GDP) analog for guanosine triphosphate (GTP). Briefly, test compounds, then GTP and the Ras GEF SOS (Son of Sevenless) are added to a buffered solution containing Ras protein loaded with BODIPY-GDP. Changes in fluoresence indicating exchange of the labeled GDP for GTP are monitored over time. Raw fluorescence data was fit to a single exponential decay function and derived rates were plotted as mean values. EC50 values were calculated by plotting mean derived rates as a function of compound concentration and fit using a four-parameter dose-response curve. This assay is performed in a method analogous to the assay disclosed in: Burns, M. C.; Sun, Q.; Daniels, R. N.; Camper, D. V.; Kennedy, J. P.; Phan, J.; Olejniczak, E. O.; Lee, T.; Waterson, A. G.; Rossanese, O. W.; Fesik, S. W. “Approach for targeting Ras with small molecules that activate SOS-mediated nucleotide exchange” Proc. Natl. Acad. Sci. 2014; 11(9): 3401-3406. PMCID: PMC3948241.

Where a name gives a salt, the structure may show the parent alone.

Chain of Ras GEF SOS (Son of Sevenless) (Q07889 564-1049 limits assumed): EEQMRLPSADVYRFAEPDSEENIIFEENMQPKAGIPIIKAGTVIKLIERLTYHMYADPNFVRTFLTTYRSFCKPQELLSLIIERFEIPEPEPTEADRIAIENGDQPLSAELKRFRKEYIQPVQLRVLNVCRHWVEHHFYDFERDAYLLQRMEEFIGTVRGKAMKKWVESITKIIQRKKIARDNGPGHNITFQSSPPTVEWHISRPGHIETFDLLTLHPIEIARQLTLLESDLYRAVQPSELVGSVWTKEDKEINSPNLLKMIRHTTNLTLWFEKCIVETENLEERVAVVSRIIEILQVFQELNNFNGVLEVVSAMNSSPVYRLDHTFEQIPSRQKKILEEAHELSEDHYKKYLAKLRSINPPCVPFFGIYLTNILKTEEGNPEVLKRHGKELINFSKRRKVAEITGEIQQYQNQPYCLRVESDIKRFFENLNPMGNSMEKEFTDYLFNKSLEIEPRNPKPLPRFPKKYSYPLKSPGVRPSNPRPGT
Chain of Ras GEF SOS (Son of Sevenless) (P01112 1-166 partner limits assumed): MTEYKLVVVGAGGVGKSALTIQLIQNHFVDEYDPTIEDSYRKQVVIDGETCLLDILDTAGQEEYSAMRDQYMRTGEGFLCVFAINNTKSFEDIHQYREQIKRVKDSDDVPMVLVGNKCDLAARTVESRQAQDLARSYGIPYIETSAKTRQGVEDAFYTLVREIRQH

For the molecule `Cc1ccc2c(n1)nc(NCCN)n2Cc1ccc(F)c(Cl)c1` [Example 257, N^1-(1-(3-chloro-4-fluorobenzyl)-5-methyl-1H-imidazo[4,5-b]pyridin-2-yl)ethane-1,2-diamine], the half-maximal effective concentration (EC50) was 5 to 30 µM.

`NCc1ccc2c(c1)nc(N1CCNCC1)n2Cc1ccc(F)c(Cl)c1` [Example 281, [1-[(3-chloro-4-fluorophenyl)methyl]-2-piperazin-1-ylbenzimidazol-5-yl]methanamine]: the EC50 was 5 to 30 µM.

In the case of `Clc1ccc(Cn2cnc3ncccc32)cc1` [Example 255, 1-(4-chlorobenzyl)-1H-imidazo[4,5-b]pyridine], the EC50 lay in the range of 30 to 100 µM.

For `Fc1ccc(Cn2c(C3CCNCC3)nc3ccccc32)cc1Cl` [Example 55, 1-(3-chloro-4-fluorobenzyl)-2-(piperidin-4-yl)-1H-benzo[d]imidazole trifluoroacetate], the EC50 lay in the range of 5 to 30 µM.

With `COc1ccccc1C#Cc1ccccc1-c1cc(Cl)cc2c1nc(N1CCNCC1)n2Cc1cc(C)c(F)c(C)c1` [Example 186, 6-chloro-1-(4-fluoro-3,5-dimethylbenzyl)-4-(2-((2-methoxyphenyl)ethynyl)phenyl)-2-(piperazin-1-yl)-1H-benzo[d]imidazole trifluoroacetate], the EC50 is 5 to 30 µM.

The molecule `Cc1cc(Cn2c(N3CCNCC3)nc3c(-c4ccccc4)nccc32)ccc1F` [Example 220, 1-(4-fluoro-3-methylbenzyl)-4-phenyl-2-(piperazin-1-yl)-1H-imidazo[4,5-c]pyridine] gave a half-maximal effective concentration (EC50) of 5 to 30 µM.

Consider `Cc1ccc2c(n1)nc(N1CCNCC1)n2Cc1ccc(F)c(Cl)c1` [Example 256, 1-(3-chloro-4-fluorobenzyl)-5-methyl-2-(piperazin-1-yl)-1H-imidazo[4,5-b]pyridine], for which the concentration for a half-maximal effect (EC50) is 5 to 30 µM.

`Cc1cc2nc(-c3ccncc3)n(Cc3cc(F)cc(F)c3)c2cc1C` [Example 53, 1-(3,5-difluorobenzyl)-5,6-dimethyl-2-(pyridin-4-yl)-1H-benzo[d]imidazole] returned an EC50 of 30 to 100 µM.

Take `Cc1cc2c(nc(NCCN)n2Cc2ccc(F)c(Cl)c2)c(CN2CCCC2)c1C` [Example 146, N^1-(1-(3-chloro-4-fluorobenzyl)-5,6-dimethyl-4-(pyrrolidin-1-ylmethyl)-1H-benzo[d]imidazol-2-yl)ethane-1,2-diamine trifluoroacetate]: the EC50 was 1 to 5 µM.

With `Cc1ccc2nc([C@H](N)CO)n(Cc3cccc(Cl)c3)c2c1` [Example 271, (2S)-2-amino-2-[1-[(3-chlorophenyl)methyl]-6-methylbenzimidazol-2-yl]ethanol], the EC50 lay in the range of 30 to 100 µM.

In the case of `Cc1cc(Cn2c(NCCN)nc3c(O)cccc32)ccc1F` [Example 295, 2-((2-aminoethyl)amino)-1-(4-fluoro-3-methylbenzyl)-1H-benzo[d]imidazol-4-ol], the 50% effective concentration (EC50) fell in the range of 5 to 30 µM.

In turn, `Cc1ccc2nc([C@@H](N)C(C)C)n(Cc3cccc(Cl)c3)c2c1` [Example 270, (S)-1-(1-(3-chlorobenzyl)-6-methyl-1H-benzo[d]imidazol-2-yl)-2-methylpropan-1-amine] came in with a half-maximal effective concentration (EC50) of 30 to 100 µM.

The molecule `Cc1cc2nc(NC3CCNCC3)n(Cc3ccc(F)c(Cl)c3)c2cc1C` [Example 269, 1-[(3-chloro-4-fluorophenyl)methyl]-5,6-dimethyl-N-piperidin-4-ylbenzimidazol-2-amine] had an EC50 of 30 to 100 µM.

Turning to `Cc1cc(Cn2c(NC3CCNC3)nc3c(-c4ccccc4)nccc32)ccc1F` (centres unmarked) [Example 222, 1-(4-fluoro-3-methylbenzyl)-4-phenyl-N-(pyrrolidin-3-yl)-1H-imidazo[4,5-c]pyridin-2-amine], the concentration for a half-maximal effect (EC50) was 5 to 30 µM.

As to `Cc1cc2c(cc1C)N(Cc1cccc(Br)c1)C1=NCCCN12` [Example 215, 10-(3-bromobenzyl)-7,8-dimethyl-2,3,4,10-tetrahydrobenzo[4,5]imidazo[1,2-a]pyrimidine], the EC50 was 5 to 30 µM.

For `Nc1nc2ccccc2n1Cc1ccc(F)cc1` [Example 1, 1-(4-fluorobenzyl)-1H-benzo[d]imidazol-2-amine], the EC50 lay in the range of 30 to 100 µM.

`Cc1cc2nc(N)n(Cc3ccc(F)cc3)c2cc1C` [Example 3, 1-(4-fluorobenzyl)-5,6-dimethyl-1H-benzo[d]imidazol-2-amine]: the EC50 lay within 30 to 100 µM.

`COc1ccc(-c2cccc3c2nc(N2CCNCC2)n3Cc2ccc(F)c(Cl)c2)cc1OC` [Example 88, 1-(3-chloro-4-fluorobenzyl)-4-(3,4-dimethoxyphenyl)-2-(piperazin-1-yl)-1H-benzo[d]imidazole] had an EC50 of 1 to 5 µM.

In turn, `Fc1cc(F)cc(Cn2c(N3CCOCC3)nc3ccccc32)c1` [Example 13, 4-(1-(3,5-difluorobenzyl)-1H-benzo[d]imidazol-2-yl)morpholine] yielded an EC50 of 30 to 100 µM.

Molecule `Cc1cc2nc(N3CCC(N)C3)n(Cc3ccc(F)c(Cl)c3)c2cc1C` (centres unmarked) [Example 289, 1-(1-(3-chloro-4-fluorobenzyl)-5,6-dimethyl-1H-benzo[d]imidazol-2-yl)pyrrolidin-3-amine] returned a half-maximal effective concentration (EC50) of 1 to 5 µM.

Molecule `Cc1cc(Cn2c(NCCN)nc3c(-c4ccccc4)nccc32)ccc1F` [Example 221, N^1-(1-(4-fluoro-3-methylbenzyl)-4-phenyl-1H-imidazo[4,5-c]pyridin-2-yl)ethane-1,2-diamine] came in with an EC50 of 30 to 100 µM.

`Cc1cc2nc(C3CCNCC3)n(Cc3ccc(F)c(Cl)c3)c2cc1C` [Example 59, 1-(3-chloro-4-fluorobenzyl)-5,6-dimethyl-2-(piperidin-4-yl)-1H-benzo[d]imidazazole trifluoroacetate] yielded an EC50 of 5 to 30 µM.

The molecule `Cc1ccc2nc(NCCN)n(Cc3ccc(F)c(Cl)c3)c2c1` [Example 60, N^1-(1-(3-chloro-4-fluorobenzyl)-6-methyl-1H-benzo[d]imidazol-2-yl)ethane-1,2-diamine trifluoroacetate] yielded an EC50 of 1 to 5 µM.

The molecule `Cc1cc2c(nc(N3CCNCC3)n2Cc2ccc(F)c(C)c2)c(CN2CCOCC2)n1` [Example 237, 4-((1-(4-fluoro-3-methylbenzyl)-6-methyl-2-(piperazin-1-yl)-1H-imidazo[4,5-c]pyridin-4-yl)methyl)morpholine] displayed an EC50 of 30 to 100 µM.

On to `Fc1ccc(Cn2c(N3CCOCC3)nc3ccccc32)cc1` [Example 9, 4-(1-(4-fluorobenzyl)-1H-benzo[d]imidazol-2-yl)morpholine], for which the EC50 is 30 to 100 µM.

Consider `Clc1ccc(Cn2c(N3CCNCC3)nc3ccccc32)cc1` [Example 11, 1-(4-chlorobenzyl)-2-(piperazin-1-yl)-1H-benzo[d]imidazole trifluoroacetate], for which the 50% effective concentration (EC50) was 1 to 5 µM.

Consider `Cc1cc2nc(NCCO)n(Cc3ccc(F)cc3)c2cc1C` [Example 23, 2-((1-(4-fluorobenzyl)-5,6-dimethyl-1H-benzo[d]imidazol-2-yl)amino)ethan-1-ol], for which the EC50 is 30 to 100 µM.

For `NCCNc1nc2ccccc2n1Cc1ccc(Cl)cc1` [Example 12, N^1-(1-(4-chlorobenzyl)-1H-benzo[d]imidazol-2-yl)ethane-1,2-diamine trifluoroacetate], the EC50 is 5 to 30 µM.

In the case of `Fc1ccc(Cn2c(N3CCNCC3)nc3ccc(C(F)(F)F)cc32)cc1Cl` [Example 71, 1-(3-chloro-4-fluorobenzyl)-2-(piperazin-1-yl)-6-(trifluoromethyl)-1H-benzo[d]imidazole trifluoroacetate], the concentration giving a half-maximal response (EC50) fell in the range of 1 to 5 µM.

(Values after patent US10501421B1, “Substituted benzimidazoles as modulators of Ras signaling” (VANDERBILT UNIVERSITY, priority 2017, dated 2019).)
